Experimental findings from ChEMBL document CHEMBL1201862, “PubChem BioAssay data set” (2004) are described below.

Some test systems named below: OVCAR-8; A498; K562; LOX IMVI; MDA-MB-435; HCT-15; IGROV-1; SK-OV-3; HOP-62; SN12C; RXF 393; 786-0; NCI-H226; SF-539; SW-620; M14; CCRF-CEM; HL-60; HCC 2998.
What all share (assay): NCI tumour cell line growth inhibition, 48 h

The structures appear in SMILES notation.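 Compound exposure: 48 hours, 5 concentrations, 96-well plates. Here, GI50 denotes the concentration required for 50% inhibition of growth.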 Activity calls are given as the source filed them. No stated cut-off is given here; in the data, active = GI50 up to about 1.1 µM and inactive = higher. Some results are limits rather than exact numbers.

Take `ON(CCc1ccncc1)Cc1ccccc1`: the GI50 in the assay on OVCAR-8 is > 100 µM (inactive); with A498, > 100 µM (inactive); in the assay with K562 it was > 100 µM (inactive); in the assay on LOX IMVI it was > 100 µM (inactive); in the assay on MDA-MB-435, > 100 µM (inactive); in the assay on HCT-15 it was greater than 100 µM. The GI50 in the assay with IGROV-1, in the assay on SK-OV-3, in the assay with HOP-62, with SN12C, with RXF 393 and with 786-0 was > 100 µM (inactive) in each case. In addition, the GI50 in the assay on NCI-H226, in the assay on SF-539, with SW-620 and in the assay on M14 was > 100 µM (inactive) each time.

In the case of `N#C[C@H](C(=O)c1ccccc1F)c1nc2ccccc2s1`, the GI50 with OVCAR-8 is 25.1 µM (inactive); in the assay on A498, 33 µM (inactive); with K562, 27.3 µM (inactive); with LOX IMVI, 33 µM (inactive); in the assay on MDA-MB-435, 39.8 µM (inactive); in the assay with HCT-15, 54.5 µM. The GI50 is 17.8 µM (inactive) in the assay on IGROV-1; 21.1 µM (inactive) in the assay with SK-OV-3; 20.5 µM (inactive) in the assay on HOP-62; 31.6 µM (inactive) in the assay on SN12C; 23.4 µM (inactive) in the assay with CCRF-CEM; 31.3 µM (inactive) with HL-60. Further, the GI50 with RXF 393 is 27.7 µM (inactive); in the assay with 786-0, 31.2 µM (inactive); with NCI-H226, 21.9 µM (inactive); in the assay with SF-539, 20.7 µM (inactive); in the assay with SW-620, 32.3 µM (inactive); in the assay on M14, 21.8 µM (inactive).

`O=C(O)C(Cc1ccccc1)NCc1c(O)ccc2c(-c3ccccc3)cc(=O)oc12` (stereo not drawn): the GI50 is > 100 µM (inactive) with OVCAR-8; > 100 µM (inactive) with K562; > 100 µM (inactive) with LOX IMVI; > 100 µM (inactive) in the assay with MDA-MB-435; greater than 100 µM in the assay with HCT-15; > 100 µM (inactive) in the assay with IGROV-1. For the same compound, the GI50 in the assay on SK-OV-3, in the assay with HOP-62, in the assay with SN12C, in the assay with CCRF-CEM, in the assay on HL-60 and with HCC 2998 was > 100 µM (inactive) in each case. For the same compound, the GI50 in the assay with RXF 393, in the assay with 786-0, with NCI-H226, with SF-539, with SW-620 and in the assay on M14 was > 100 µM (inactive) throughout.

In the case of `CN/C(=N\N)NS(=O)(=O)c1cc(C)c(Cl)cc1S`, the GI50 in the assay on OVCAR-8 is 96.2 µM (inactive); in the assay on K562, 49.2 µM (inactive); in the assay with LOX IMVI, 96.4 µM (inactive); with MDA-MB-435, 43.5 µM (inactive); in the assay with HCT-15 it was 48.2 µM; in the assay on IGROV-1, 86.3 µM (inactive). The GI50 with SK-OV-3 is > 100 µM (inactive); with HOP-62 it was > 100 µM (inactive); in the assay on SN12C, > 100 µM (inactive); in the assay on CCRF-CEM, 43.6 µM (inactive); in the assay on HL-60 it was 41.5 µM (inactive); in the assay with HCC 2998 it was 87.7 µM (inactive). The GI50 in the assay on RXF 393 was 33.4 µM (inactive); with 786-0, 27.3 µM (inactive); with NCI-H226, > 100 µM (inactive); in the assay with SF-539, > 100 µM (inactive); in the assay on SW-620, 48.5 µM (inactive); in the assay on M14, 54.5 µM (inactive).

Take `COC(=O)Cc1c(-c2c(CC(=O)OC)c3ccccc3n2C2OC(COC3OC(COC(C)=O)C(OC(C)=O)C(OC(C)=O)C3OC(C)=O)C(O)C(O)C2O)[nH]c2ccccc12` (stereo not drawn): the GI50 was 57.8 µM (inactive) in the assay on A498; > 100 µM (inactive) in the assay on K562; > 100 µM (inactive) in the assay with LOX IMVI; > 100 µM (inactive) in the assay on MDA-MB-435; greater than 100 µM in the assay on HCT-15; 75.3 µM (inactive) in the assay on IGROV-1. The GI50 in the assay on SK-OV-3 is 74.8 µM (inactive); with HOP-62 it was 23 µM (inactive); in the assay with SN12C, > 100 µM (inactive); in the assay with CCRF-CEM, > 100 µM (inactive); in the assay on HL-60, > 100 µM (inactive); in the assay with 786-0 it was 37 µM (inactive). For the same compound, the GI50 in the assay on NCI-H226 is 61.4 µM (inactive); in the assay on SF-539 it was 51.5 µM (inactive); with SW-620, > 100 µM (inactive); in the assay on M14 it was > 100 µM (inactive).

Regarding `CCOC(=O)/C=C(/C(=O)OCC)n1cc(Cl)c(=O)n(CC(=O)OCC)c1=O`, the GI50 in the assay on OVCAR-8 was 4.53 µM (inactive); with A498, 17.5 µM (inactive); with K562, 2.1 µM (inactive); with LOX IMVI it was 4.37 µM (inactive); with MDA-MB-435, 4.95 µM (inactive); in the assay with HCT-15 it was 5.46 µM. Further, the GI50 is 4.76 µM (inactive) in the assay on IGROV-1; > 25 µM (inactive) with SK-OV-3; 22.4 µM (inactive) with HOP-62; 5.64 µM (inactive) in the assay with SN12C; 0.444 µM (active) in the assay on CCRF-CEM; 3.85 µM (inactive) in the assay on HL-60. Further, the GI50 in the assay on RXF 393 was 4.57 µM (inactive); in the assay on 786-0, 0.828 µM (active); in the assay on NCI-H226, > 25 µM (inactive); in the assay with SF-539 it was 5.04 µM (inactive); in the assay on SW-620, 0.995 µM (active); in the assay on M14, 4.57 µM (inactive).

As to `Brc1cccc(Nc2ncnc3sc4c(c23)CCC2(C4)OCCO2)c1`, the GI50 is 24.5 µM (inactive) in the assay with OVCAR-8; 15.3 µM (inactive) in the assay on A498; 18.6 µM (inactive) with LOX IMVI; 28.2 µM (inactive) with MDA-MB-435; 25.4 µM in the assay with HCT-15; 8.73 µM (inactive) in the assay with IGROV-1. Also, the GI50 in the assay with SK-OV-3 is 32.1 µM (inactive); with HOP-62, 52.4 µM (inactive); with SN12C, 27.4 µM (inactive); with HCC 2998, 23.7 µM (inactive); in the assay on 786-0, 25.7 µM (inactive); in the assay with NCI-H226, 18.6 µM (inactive). The GI50 with SW-620 was 0.0203 µM (active); with M14, 31.1 µM (inactive).

With `C=CCc1c(C)nc(C)nc1N/N=C/C=C/c1ccccc1`, the GI50 with OVCAR-8 was 32.2 µM (inactive); in the assay with A498, 25.9 µM (inactive); with K562 it was 23.3 µM (inactive); with LOX IMVI it was 39.1 µM (inactive); in the assay with MDA-MB-435 it was 23.6 µM (inactive); in the assay on HCT-15, 35.4 µM. The GI50 is 31.4 µM (inactive) with IGROV-1; 55.5 µM (inactive) with SK-OV-3; 16.5 µM (inactive) in the assay with HOP-62; 48 µM (inactive) with SN12C; 44 µM (inactive) in the assay with CCRF-CEM; 33.6 µM (inactive) in the assay with HL-60. Besides, the GI50 is 4.06 µM (inactive) in the assay on RXF 393; 65.2 µM (inactive) in the assay with 786-0; > 100 µM (inactive) in the assay on NCI-H226; 32.1 µM (inactive) in the assay on SF-539; 51.8 µM (inactive) in the assay with SW-620; 31.2 µM (inactive) in the assay on M14.

With `Cc1cc(S(=O)(=O)NC2=Nc3cccc4cccc(c34)N2)c(S)cc1Cl`, the GI50 was > 100 µM (inactive) in the assay on OVCAR-8; > 100 µM (inactive) in the assay on K562; 70.5 µM (inactive) in the assay on LOX IMVI; 83.4 µM (inactive) with MDA-MB-435; greater than 100 µM in the assay on HCT-15; 63.5 µM (inactive) with IGROV-1. Moreover, the GI50 is 44.5 µM (inactive) with CCRF-CEM; 77.4 µM (inactive) in the assay with HL-60; > 100 µM (inactive) in the assay on HCC 2998; 97.5 µM (inactive) in the assay with RXF 393; 84.5 µM (inactive) in the assay on 786-0; > 100 µM (inactive) in the assay on NCI-H226. Besides, the GI50 with SF-539 is > 100 µM (inactive); in the assay on SW-620 it was 78.7 µM (inactive); in the assay on M14, 65.2 µM (inactive).

Consider `Oc1ccccc1/C=N/c1ccc(-c2nc3ccccc3[nH]2)cc1`, for which the GI50 with OVCAR-8 is 47.1 µM (inactive); with A498 it was > 100 µM (inactive); in the assay with K562, 43.2 µM (inactive); with LOX IMVI it was > 100 µM (inactive); in the assay on MDA-MB-435, 67.6 µM (inactive); in the assay on HCT-15, 29.6 µM. Also, the GI50 with IGROV-1 was 28.4 µM (inactive); in the assay with SK-OV-3, > 100 µM (inactive); in the assay on HOP-62, > 100 µM (inactive); in the assay on SN12C, 79.1 µM (inactive); with CCRF-CEM it was 22.5 µM (inactive); in the assay on HL-60, 25.2 µM (inactive). Further, the GI50 in the assay with RXF 393 was 29.7 µM (inactive); with 786-0, > 100 µM (inactive); in the assay with NCI-H226 it was > 100 µM (inactive); in the assay with SF-539, > 100 µM (inactive); in the assay on SW-620 it was 90.2 µM (inactive); with M14, 63.4 µM (inactive).

For the compound `COc1c(O)cc(/C=C/c2cc(O)cc3c2[C@@]2(C(=O)O3)c3c(O)cc(O)cc3OC2c2cccc(O)c2)cc1O` (stereo partly drawn), the GI50 in the assay on OVCAR-8 is 23.7 µM (inactive); in the assay with A498, 94.6 µM (inactive); in the assay on K562, 65.3 µM (inactive); in the assay on LOX IMVI it was 43.7 µM (inactive); with MDA-MB-435, 54.3 µM (inactive); with HCT-15, 30.5 µM. Also, the GI50 in the assay with IGROV-1 was 16.2 µM (inactive); with SK-OV-3, 28.2 µM (inactive); in the assay with HOP-62 it was > 100 µM (inactive); with SN12C it was 19.2 µM (inactive); in the assay on CCRF-CEM, 30.5 µM (inactive); in the assay on HL-60 it was 28 µM (inactive). For the same compound, the GI50 is 52.2 µM (inactive) with RXF 393; 68.7 µM (inactive) in the assay on 786-0; 39.4 µM (inactive) in the assay with SF-539; 44.2 µM (inactive) in the assay with SW-620; 95.3 µM (inactive) with M14.

Regarding `Cc1[nH]n(C2=NCCN2)c(=O)c1C`, the GI50 was > 100 µM (inactive) with OVCAR-8; > 100 µM (inactive) in the assay on A498; > 100 µM (inactive) in the assay on K562; > 100 µM (inactive) in the assay with LOX IMVI; > 100 µM (inactive) in the assay with MDA-MB-435; greater than 100 µM in the assay with HCT-15. The GI50 in the assay with IGROV-1, in the assay with SK-OV-3, in the assay on HOP-62, with CCRF-CEM, in the assay with HL-60 and with RXF 393 was > 100 µM (inactive) each time. Further, the GI50 in the assay on 786-0, in the assay with NCI-H226, in the assay with SF-539, with SW-620 and in the assay with M14 was > 100 µM (inactive) in each case.
